# Results: publication PMC9233054 (Pharmaceutical development and technology, 2022)
# Key:
# [1] = assay type: physicochemical; settings: 1:1 cholecalciferol:HPBCD; calculated with theoretic S0
# [2] = HPBCD 0 mM (control, D.I. H2O), S0; ref Hamilton 2015; cited from earlier work
# [3] = physchem; settings: water, thermodynamic from solid
# [4] = Phase solubility study
smiles,measurement,setting,value
C=C1CC[C@H](O)C/C1=C/C=C1\CCC[C@]2(C)[C@@H]([C@H](C)CCCC(C)C)CC[C@@H]12 [cholecalciferol],stability constant K1:1,[1],71900 mM⁻¹
same,Saturated concentration of vitamin D3 in HPBCD solution (S),[2],3.38×10^−8 (S0) ([Hamilton 2015]) mM
same,solubility at 3 days,[3],1.6 µM
same,Solubility increase ratio (S/S0),"[4]; HPBCD 0 mM (control, D.I. H2O)",1
same,Solubility increase ratio (S/S0),[4]; HPBCD 10 mM,5.92×10^5
same,Solubility increase ratio (S/S0),[4]; HPBCD 40 mM,1.42×10^7
same,Solubility increase ratio (S/S0),[4]; HPBCD 50 mM,2.29×10^7
same,Solubility increase ratio (S/S0),[4]; HPBCD 70 mM,4.56×10^7
same,Solubility increase ratio (S/S0),[4]; HPBCD 100 mM,9.30×10^7
same,Solubility increase ratio (S/S0),[4]; HPBCD 120 mM,1.11×10^8
same,Solubility increase ratio (S/S0),[4]; HPBCD 150 mM,1.90×10^8
same,Solubility increase ratio (S/S0),[4]; HPBCD 170 mM,2.31×10^8
same,Solubility increase ratio (S/S0),[4]; HPBCD 200 mM,3.29×10^8
same,solubility increase ratio,[4]; different HPBCD molarities (Table 1),enhanced by five or more orders of magnitude
